Measurements as given in patent US9738610B2, “Indazole derivatives and uses thereof” (Whitehead Institute for Biomedical Research, priority 2012, dated 2017).
Entries after “also recorded” stand apart in the source; their conditions may differ.

Key:
[1] = biological target: cytochrome B of S. cerevisiae resistant to known antifungal agents (Saccharomyces cerevisiae, UniProt P00163, L275F); details: FIG. 14A curve 3
Protocol: (§1) Compounds described herein were added to plates in a buffer containing 50 mM Tris-Cl pH 7.3, 10 mM NaN3, 0.01% BSA, and 0.05% Tween-20. Mitochondrial membranes (2-5 μg protein) were added to the buffer, followed by oxidized equine cytochrome C (Sigma) at a final concentration of 50 μM. Reactions were initiated by adding decylubiquinol to a final concentration of 50 μM. Reaction progress was monitored by reading the increase in signal at 550 nm on a Tecan Evo plate reader. […] All measurements were performed in triplicate.

[2] = test system: Saccharomyces cerevisiae strain W303-1a; assay: In vivo inhibition of fungal respiration (growth on glycerol); format: cell-based; details: glycerol medium, 48 hours
Protocol: Saccharomyces cerevisiae (S. cerevisiae) strain W303-1a was grown overnight in Yeast-Peptone-Dextrose media, washed, and diluted into Yeast Nitrogen Base media with 2.5% glycerol containing compounds at a range of dilutions.

human Complex III = biological target: T1, human Complex III (Homo sapiens, UniProt P00156); assay: In vitro inhibition of Complex III, human enzyme; format: biochemical; details: FIG. 14A curve 2
T1 construct: Mitochondrial membranes were prepared from yeast (Meisinger et al., Methods Mol. Biol. 2006, 313:33-9.) or HEK293 cells; endogenous in cells; host or cells: HEK293 cells (mitochondrial membranes)
Protocol: as §1

[3] = biological target: cytochrome B of yeast S. cerevisiae (wild type) (Saccharomyces cerevisiae, UniProt P00163); assay: biochemical
Aspergillus terreus = Aspergillus terreus susceptibility test (CLSI M38-A2); format: cell-based
Protocol: Aspergillus terreus (A. terreus) susceptibility testing was performed as described in Clinical Laboratory Standards Institute document […]-A2 (CLSI […]-A2) (CLSI. Reference Method for Broth Dilution Antifungal Susceptibility Testing of Filamentous Fungi; Approved Standard-Second Edition. CLSI, 940 West Valley Road, Suite 1400, Wayne, Pa. 19087-1898 USA, 2003).

fungus = details: read-out: IC50, single-agent antifungal activity; cited from earlier work
C. albicans = details: cited from earlier work

COC(=O)Cn1nc(-c2ccccc2)c2ccccc21 [Compound I-3]
Inhibitory activity against resistant S. cerevisiae [1]: showed inhibitory activity | Inhibitory activity against S. cerevisiae (respiratory growth) [2]: completely inhibits respiratory growth; also recorded: shows inhibitory activity | Inhibition of human Complex III in vitro (human Complex III): active | IC50 [3]: ~600 nM | Inhibitory activity against A. terreus (Aspergillus terreus): shows inhibitory activity

Plagiochin E
IC50 (fungus): 3800 nM | Concentration that increased yeast susceptibility to fluconazole (C. albicans): 2.4 µM
